ChEMBL document CHEMBL1201862, “PubChem BioAssay data set” (2004)
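48-hour exposure; five concentrations; linearly interpolated endpoints. GI50 = concentration required for 50% inhibition of growth.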 Calls of active or inactive are those of the source. Rule as the data show it: active = GI50 up to about 1.1 µM and inactive = higher.

Key:
Experiment in all cases: NCI tumour cell line growth inhibition, 48 h
[1] = tested on: 786-0
[2] = tested on: A549
[3] = tested on: ACHN
[4] = tested on: BT-549
[5] = tested on: CCRF-CEM
[6] = tested on: COLO 205
[7] = tested on: DU-145
[8] = tested on: EKVX
[9] = tested on: HCC 2998
[10] = tested on: HCT-116
[11] = tested on: HCT-15
[12] = tested on: HL-60
[13] = tested on: HOP-62
[14] = tested on: HT-29
[15] = tested on: Hs-578T
[16] = tested on: IGROV-1
[17] = tested on: K562
[18] = tested on: KM12
[19] = tested on: M14
[20] = tested on: MCF7
[21] = tested on: MDA-MB-231
[22] = tested on: MDA-MB-435
[23] = tested on: MDA-N
[24] = tested on: MOLT-4
[25] = tested on: NCI-H226
[26] = tested on: NCI-H23
[27] = tested on: NCI-H460
[28] = tested on: NCI-H522
[29] = tested on: NCI/ADR-RES
[30] = tested on: OVCAR-3
[31] = tested on: OVCAR-4
[32] = tested on: OVCAR-8
[33] = tested on: PC-3
[34] = tested on: RPMI-8226
[35] = tested on: RXF 393
[36] = tested on: SF-268
[37] = tested on: SF-295
[38] = tested on: SF-539
[39] = tested on: SK-MEL-28
[40] = tested on: SK-MEL-5
[41] = tested on: SK-OV-3
[42] = tested on: SN12C
[43] = tested on: SNB-19
[44] = tested on: SNB-75
[45] = tested on: SR
[46] = tested on: SW-620
[47] = tested on: T47D
[48] = tested on: TK-10
[49] = tested on: U-251
[50] = tested on: UACC-257
[51] = tested on: UACC-62
[52] = tested on: UO-31
[53] = tested on: A498
[54] = tested on: CAKI-1
[55] = tested on: LOX IMVI
[56] = tested on: Malme-3M
[57] = tested on: OVCAR-5
[58] = tested on: SK-MEL-2

Measured: GI50

COc1ccc(N2C(=O)c3c4c(c5c([nH]c6ncccc65)c3C2=O)CCC(C(C)(C)C)C4)cc1 (centres undefined)
> 100 µM: [11]
inactive: [1] 35.6 µM | [2] > 100 µM | [3] 40.6 µM | [4] 84.9 µM | [5] > 100 µM | [6] > 100 µM | [7] > 100 µM | [8] > 100 µM | [9] > 100 µM | [10] > 100 µM | [12] > 100 µM | [13] 38.6 µM | [14] > 100 µM | [15] 28.8 µM | [16] > 100 µM | [17] > 10 µM | [18] > 100 µM | [19] > 100 µM | [20] > 100 µM | [21] > 100 µM | [22] > 100 µM | [23] > 100 µM | [24] > 10 µM | [25] > 100 µM | [26] 67 µM | [27] > 100 µM | [28] 67.3 µM | [29] > 100 µM | [30] > 100 µM | [31] > 100 µM | [32] > 100 µM | [33] > 100 µM | [34] > 100 µM | [35] 34.6 µM | [36] 72.6 µM | [37] 45.6 µM | [38] 41.9 µM | [39] > 100 µM | [40] > 100 µM | [41] 40.6 µM | [42] > 100 µM | [43] 65.3 µM | [44] 16.8 µM | [45] > 100 µM | [46] > 100 µM | [47] > 100 µM | [48] 66.4 µM | [49] 31 µM | [50] > 100 µM | [51] 30.3 µM | [52] > 100 µM

CCOC(=O)C1(Cc2ccccc2)Cc2cc3c(cc2C1)CCC3
27.7 µM: [11]
inactive: [1] 38.1 µM | [53] 49.4 µM | [2] 36.8 µM | [3] 38.7 µM | [4] 25.2 µM | [54] 39.5 µM | [5] 16.5 µM | [6] 19.3 µM | [7] 44.6 µM | [8] 42.8 µM | [9] 21.4 µM | [10] 24.3 µM | [12] 23.8 µM | [13] 37.2 µM | [14] 18.4 µM | [15] 22.3 µM | [16] 39 µM | [17] 22.5 µM | [18] 31.9 µM | [55] 18.8 µM | [19] 29.5 µM | [20] 23 µM | [21] 30.4 µM | [22] 30.2 µM | [23] 31.1 µM | [24] 17.5 µM | [56] 29.6 µM | [25] 25.2 µM | [26] 27 µM | [27] 31.3 µM | [28] 30.3 µM | [29] 48.1 µM | [30] 41.1 µM | [31] 35.7 µM | [57] 25.2 µM | [32] 47.3 µM | [33] 25.7 µM | [34] 20.6 µM | [36] 52.4 µM | [37] 29.4 µM | [38] 39 µM | [39] 38.8 µM | [58] 12.8 µM | [41] 35 µM | [42] 33.3 µM | [43] 55.8 µM | [44] > 10 µM | [45] 23.9 µM | [46] 28.6 µM | [47] 26.7 µM | [48] 92.7 µM | [49] 30.8 µM | [50] 40.7 µM | [51] 30.1 µM | [52] 40.9 µM

CCN(CC)c1ccc(C2Nc3ccc4ccccc4c3C3=C2C(=O)CCC3)cc1 (centres undefined)
> 100 µM: [11]
inactive: [1] 19.4 µM | [53] 45.4 µM | [2] 26.7 µM | [3] 12.2 µM | [4] 60.8 µM | [54] 33.7 µM | [5] > 100 µM | [6] > 100 µM | [7] 23.9 µM | [8] > 100 µM | [9] > 100 µM | [10] 25.3 µM | [13] 20.4 µM | [14] 55.7 µM | [15] 11.2 µM | [17] > 100 µM | [18] > 100 µM | [19] > 100 µM | [20] 40.3 µM | [21] 11.7 µM | [22] 54.6 µM | [23] > 100 µM | [24] > 100 µM | [56] > 100 µM | [25] 35.8 µM | [26] 75 µM | [27] > 100 µM | [29] 26.6 µM | [30] 16.4 µM | [31] 14.9 µM | [57] > 100 µM | [32] 14.7 µM | [33] 39.3 µM | [34] > 100 µM | [35] 17.3 µM | [36] 27.5 µM | [37] 24.6 µM | [38] 13.1 µM | [39] > 100 µM | [58] 35.5 µM | [41] 38.4 µM | [42] 42 µM | [43] 37.3 µM | [44] 17.3 µM | [46] > 100 µM | [47] 39 µM | [49] 14.9 µM | [50] > 100 µM | [51] 24.7 µM | [52] 26.1 µM
